The text below walks through data of patent publication US8299077B2 (Roche Palo Alto LLC, priority 2009, dated 2012).

In the first data set the test system is B cell receptor-mediated activation of B cells in human blood (CD69 expression). Description: Inhibition of B cell activation in whole blood measured by CD69 expression. Particulars: anti-IgM stimulation, 20 h, 50% decrease of CD69-positive cells that are also CD20-positive. The class given is cell-based. In outline:
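Healthy-donor human whole blood (heparin) preincubated with compound (nine-point, three-fold dilutions) for 30 min at 37 °C, then stimulated with goat F(ab′)2 anti-human IgM (50 μg/ml final) for 20 h. CD69-positive B cells (CD20 gating) measured by flow cytometry as percent positive; IC50 from dose-response fit.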
A word on the IC50: it is the midpoint of a concentration-inhibition curve. A low value points to inhibition by little substance. In the case of `CN1CCN(Cc2ccc(Nc3cc(-c4cccc(-n5ncc6cc(C(C)(C)C)cc(F)c6c5=O)c4CO)cn(C)c3=O)nc2)CC1` [Example I-15, 6-tert-butyl-8-fluoro-2-(2-hydroxymethyl-3-{1-methyl-5-[5-(4-methyl-piperazin-1-ylmethyl)-pyridin-2-ylamino]-6-oxo-1,6-dihydro-pyridin-3-yl}-phenyl)-2H-phthalazin-1-one], the half-inhibitory concentration (IC50) was determined as 7 nM.

Consider `CN1CCN(C)C(c2ccc(Nc3nc(-c4cccc(-n5ncc6cc(C(C)(C)C)cc(F)c6c5=O)c4CO)cn(C)c3=O)cc2)C1=O` (centres unmarked) [Example I-89, 6-tert-Butyl-2-(3-{6-[4-(1,4-dimethyl-3-oxo-piperazin-2-yl)-phenylamino]-4-methyl-5-oxo-4,5-dihydro-pyrazin-2-yl}-2-hydroxymethyl-phenyl)-8-fluoro-2H-phthalazin-1-one], for which half-maximal inhibition (IC50) required 12 nM. This IC50 lies about 1.7-fold higher than the previous one.

System in the next data set: not given
Experiment: not given
Conditions: not given
By melting point is commonly meant the temperature, or range, at which the solid turns liquid. In turn, `Cn1cc(-c2cccc(-n3ncc4cc(C(C)(C)C)cc(F)c4c3=O)c2CO)cc(Nc2ccc(C(C)(C)C(=O)O)cn2)c1=O` [Example 18, 2-(6-{5-[3-(6-tert-butyl-8-fluoro-1-oxo-1H-phthalazin-2-yl)-2-hydroxymethyl-phenyl]-1-methyl-2-oxo-1,2-dihydro-pyridin-3-ylamino}-pyridin-3-yl)-2-methyl-propionic acid] registered a melting point of 218 to 220 °C.

As to `CN1CC(Oc2ccc(Nc3cc(-c4cccc(-n5ncc6cc(C(C)(C)C)cc(F)c6c5=O)c4CO)cn(C)c3=O)nc2)C1` [Example 27, 6-tert-Butyl-8-fluoro-2-(2-hydroxymethyl-3-{1-methyl-5-[5-(1-methyl-azetidin-3-yloxy)-pyridin-2-ylamino]-6-oxo-1,6-dihydro-pyridin-3-yl}-phenyl)-2H-phthalazin-1-one], the melting point was > 300 °C.

As for `CCNCc1ccc(Nc2cc(-c3cccc(-n4ncc5cc(C(C)(C)C)cc(F)c5c4=O)c3CO)cn(C)c2=O)nc1` [Example 29, 6-tert-Butyl-2-{3-[5-(5-ethylaminomethyl-pyridin-2-ylamino)-1-methyl-6-oxo-1,6-dihydro-pyridin-3-yl]-2-hydroxymethyl-phenyl}-8-fluoro-2H-phthalazin-1-one], the melting point was 265 to 268 °C.

Compound `Cn1cc(-c2cccc(-n3ncc4cc(C(C)(C)C)cc(F)c4c3=O)c2CO)cc(Nc2ccc(C(C)(C)O)cn2)c1=O` [Example 37, 6-tert-Butyl-8-fluoro-2-(2-hydroxymethyl-3-{5-[5-(1-hydroxy-1-methyl-ethyl)-pyridin-2-ylamino]-1-methyl-6-oxo-1,6-dihydro-pyridin-3-yl}-phenyl)-2H-phthalazin-1-one] came in with a melting point of 200 to 205 °C.

With `CCNC(C)(C)c1ccc(Nc2cc(-c3cccc(-n4ncc5cc(C(C)(C)C)cc(F)c5c4=O)c3CO)cn(C)c2=O)nc1` [Example 260, 6-tert-Butyl-2-(3-{5-[5-(1-ethylamino-1-methyl-ethyl)-pyridin-2-ylamino]-1-methyl-6-oxo-1,6-dihydro-pyridin-3-yl}-2-hydroxymethyl-phenyl)-8-fluoro-2H-phthalazin-1-one], the melting point was 195 to 200 °C.

In the case of `CN1CCN(Cc2ccc(Nc3cc(-c4cccc(-n5ncc6cc(C(C)(C)C)cc(F)c6c5=O)c4CO)cn(C)c3=O)nc2)CC1` [Example I-15, 6-tert-butyl-8-fluoro-2-(2-hydroxymethyl-3-{1-methyl-5-[5-(4-methyl-piperazin-1-ylmethyl)-pyridin-2-ylamino]-6-oxo-1,6-dihydro-pyridin-3-yl}-phenyl)-2H-phthalazin-1-one], the melting point lay in the range of 235 to 238 °C.
